Values joined by “and” are separate entries in the source; they are usually repeats but may differ in a detail not shown here. Equal values may be shown once.
How the values were obtained:
[1] = oral; cited from earlier work
[2] = Pharmacokinetics after 24-hour subcutaneous infusion via fluid delivery device in male Beagle dogs (plasma, LC-MS/MS); conditions: for AUC(0-t): AUClast; for MRT last: MRTlast
[3] = Group 1, SC infusion 40 mg/animal, individual animals
[4] = SC infusion 76 mg/animal, individual animals
[5] = dogs, 40 mg/24 h and 76 mg/24 h SC infusion, both dosages
[6] = male, Beagle, dog, in vivo, sc, 3.21 mg/kg, Group 1, SC infusion, dose 3.21 mg/kg, mean
[7] = male, Beagle, dog, in vivo, sc, 5.45 mg/kg, Group 2, SC infusion, dose 5.45 mg/kg, mean
[8] = male, Beagle, dog, in vivo, sc, 40 mg, Group 1, SC infusion 40 mg/animal, mean
[9] = male, Beagle, dog, in vivo, sc, 40 mg/animal, Plasma concentration of CBD, Group 1, SC infusion 40 mg/animal, individual animals, BLOQ = below 1 ng/mL
[10] = male, Beagle, dog, in vivo, sc, 40 mg/animal, Plasma concentration of CBD, Group 1, SC infusion 40 mg/animal, mean (BLOQ samples excluded)
[11] = male, Beagle, dog, in vivo, sc, 76 mg, SC infusion 76 mg/animal, mean
[12] = male, Beagle, dog, in vivo, sc, 76 mg/animal, Plasma concentration of CBD, SC infusion 76 mg/animal, individual animals, BLOQ = below 1 ng/mL
[13] = male, Beagle, dog, in vivo, sc, 76 mg/animal, Plasma concentration of CBD, SC infusion 76 mg/animal, mean (BLOQ samples excluded)

C=C(C)[C@@H]1CCC(C)=C[C@H]1c1c(O)cc(CCCCC)cc1O [CBD, Cannabidiol]
Fraction lost in the liver through the digestion [1]: approximately 94% | AUClast [2, 3]: 363 ng·h/mL and 19.9 ng·h/mL and 127 ng·h/mL and 371 ng·h/mL | Cmax [2, 3]: 14.2 ng/mL (2×) and 5.34 ng/mL and 5.83 ng/mL | MRTlast [2, 3]: 26.0 h and 3.61 h and 16.3 h | tmax [2, 3]: 30.0 hr (3×) and 3.00 hr | Cmax ([2]; Group 1, SC infusion, dose 3.21 mg/kg, mean): 9.92 ng(mL | Cmax ([2]; Group 2, SC infusion, dose 5.45 mg/kg, mean): 11.7 ng(mL | AUClast [2, 4]: 217 ng·h/mL and 493 ng·h/mL and 129 ng·h/mL and 372 ng·h/mL | Cmax [2, 4]: 10.3 ng/mL and 17.5 ng/mL and 5.24 ng/mL and 13.6 ng/mL | MRTlast [2, 4]: 30.4 h and 18.9 h and 21.5 h | tmax [2, 4]: 24.0 hr (2×) and 2.00 hr and 18.0 hr | Absorption: first detection of CBD levels in blood [2, 5]: detected within an hour of the beginning of infusion | Elimination: CBD detectability after end of infusion [2, 5]: still detectable 24 h after completion of fluid delivery device infusion | Constancy of CBD concentration in the blood ([2]; group 1 (40 mg CBD/animal) and group 2 (76 mg CBD/animal), FIGS. 24 and 25): constant concentration of CBD in the blood with a minimal variation is reached after few hours | AUC(0-t) [2, 6]: 221 ng·h/mL | MRT last [2, 6]: 17.6 h | tmax ([2]; male, Beagle, dog, in vivo, sc, 3.21 mg/kg, Tmax, Group 1, SC infusion, dose 3.21 mg/kg, mean): 23.3 h | AUC(0-t) [2, 7]: 303 ng·h/mL | MRT last [2, 7]: 24.3 h | tmax ([2]; male, Beagle, dog, in vivo, sc, 5.45 mg/kg, Tmax, Group 2, SC infusion, dose 5.45 mg/kg, mean): 17 h | AUC(0-t) [2, 8]: 221 ng·h/mL | Cmax ([2]; male, Beagle, dog, in vivo, sc, 40 mg, Cmax, Group 1, SC infusion 40 mg/animal, mean): 9.92 ng/mL | MRT last [2, 8]: 17.6 h | tmax ([2]; male, Beagle, dog, in vivo, sc, 40 mg, tmax, Group 1, SC infusion 40 mg/animal, mean): 23.3 h | concentration at 0.083 h ([2]; male, Beagle, dog, in vivo, sc, 40 mg/animal, Plasma concentration of CBD, Group 1, SC infusion 40 mg/animal, 0.083 hr, individual animals, BLOQ = below 1 ng/mL): 5.76 ng/mL | concentration at 0.5 h ([2]; male, Beagle, dog, in vivo, sc, 40 mg/animal, Plasma concentration of CBD, Group 1, SC infusion 40 mg/animal, 0.5 hr, mean (BLOQ samples excluded)): 3.28 ng/mL | concentration at 0.75 h [2, 9]: 2.83 ng/mL | concentration at 0.75 h [2, 10]: 2.45 ng/mL | concentration at 1 h [2, 10]: 2.63 ng/mL | concentration at 2 h [2, 10]: 3.72 ng/mL | concentration at 3 h [2, 10]: 7.36 ng/mL | concentration at 4 h [2, 10]: 4.1 ng/mL | concentration at 5 h [2, 10]: 5.11 ng/mL | concentration at 6 h [2, 10]: 6.12 ng/mL | concentration at 7 h [2, 10]: 5.53 ng/mL | concentration at 8 h [2, 9]: 5.06 ng/mL | concentration at 8 h [2, 10]: 6.03 ng/mL | concentration at 10 h [2, 10]: 5.92 ng/mL | concentration at 12 h [2, 9]: 4.47 ng/mL | concentration at 12 h [2, 10]: 5.12 ng/mL | concentration at 18 h [2, 9]: 3.31 ng/mL | concentration at 24 h [2, 9]: 9.48 ng/mL | concentration at 24 h [2, 10]: 8.82 ng/mL | concentration at 30 h [2, 10]: 11.4 ng/mL | concentration at 36 h ([2]; male, Beagle, dog, in vivo, sc, 40 mg/animal, Plasma concentration of CBD, Group 1, SC infusion 40 mg/animal, 36 hr, individual animals, BLOQ = below 1 ng/mL): 9.05 ng/mL | concentration at 36 h ([2]; male, Beagle, dog, in vivo, sc, 40 mg/animal, Plasma concentration of CBD, Group 1, SC infusion 40 mg/animal, 36 hr, mean (BLOQ samples excluded)): 7.59 ng/mL | concentration at 48 h ([2]; male, Beagle, dog, in vivo, sc, 40 mg/animal, Plasma concentration of CBD, Group 1, SC infusion 40 mg/animal, 48 hr, individual animals, BLOQ = below 1 ng/mL): 4.2 ng/mL | concentration at 48 h ([2]; male, Beagle, dog, in vivo, sc, 40 mg/animal, Plasma concentration of CBD, Group 1, SC infusion 40 mg/animal, 48 hr, mean (BLOQ samples excluded)): 5.15 ng/mL | AUC(0-t) [2, 11]: 303 ng·h/mL | Cmax ([2]; male, Beagle, dog, in vivo, sc, 76 mg, Cmax, SC infusion 76 mg/animal, mean): 11.7 ng/mL | MRT last ([2]; male, Beagle, dog, in vivo, sc, 76 mg, SC infusion 76 mg/animal, individual animals): 26.5 h | MRT last [2, 11]: 24.3 h | tmax ([2]; male, Beagle, dog, in vivo, sc, 76 mg, tmax, SC infusion 76 mg/animal, mean): 17 h | concentration at 1 h [2, 12]: 3.73 ng/mL | concentration at 1 h [2, 13]: 5.31 ng/mL | concentration at 2 h [2, 12]: 3.69 ng/mL | concentration at 2 h [2, 13]: 4.97 ng/mL | concentration at 3 h [2, 13]: 4.38 ng/mL | concentration at 4 h [2, 13]: 3.31 ng/mL | concentration at 5 h [2, 12]: 2.42 ng/mL | concentration at 5 h [2, 13]: 2.17 ng/mL | concentration at 6 h [2, 13]: 5.35 ng/mL | concentration at 7 h [2, 13]: 4.78 ng/mL | concentration at 8 h [2, 13]: 5.14 ng/mL | concentration at 10 h [2, 13]: 4.19 ng/mL | concentration at 12 h [2, 13]: 6.03 ng/mL | concentration at 18 h [2, 13]: 5.93 ng/mL | concentration at 24 h [2, 13]: 9.68 ng/mL | concentration at 30 h [2, 13]: 9.04 ng/mL | concentration at 36 hr ([2]; male, Beagle, dog, in vivo, sc, 76 mg/animal, Plasma concentration of CBD, SC infusion 76 mg/animal, 36 hr, mean (BLOQ samples excluded)): 6.04 ng/mL | concentration at 48 hr ([2]; male, Beagle, dog, in vivo, sc, 76 mg/animal, Plasma concentration of CBD, SC infusion 76 mg/animal, 48 hr, mean (BLOQ samples excluded)): 8.32 ng/mL

From patent US12576093B2, “Pharmaceutical composition for subcutaneous administration” (MANNKIND CORPORATION, priority 2019, dated 2026)
